The text below walks through data of patent publication US10273224B2, “Substituted pyrimidine compounds, compositions and medicinal applications thereof” (JUBILANT BIOSYS LIMITED, priority 2013, dated 2019).

Structures are written as SMILES. Bounds are passed on as bounds.

In the test the target is T1, EGFR (L858R & T790M) (Homo sapiens, UniProt P00533, L858R/T790M).
T1 construct: GST; purchased Proqinase
T1 sequence (P00533 25-1210 T790M/L858R): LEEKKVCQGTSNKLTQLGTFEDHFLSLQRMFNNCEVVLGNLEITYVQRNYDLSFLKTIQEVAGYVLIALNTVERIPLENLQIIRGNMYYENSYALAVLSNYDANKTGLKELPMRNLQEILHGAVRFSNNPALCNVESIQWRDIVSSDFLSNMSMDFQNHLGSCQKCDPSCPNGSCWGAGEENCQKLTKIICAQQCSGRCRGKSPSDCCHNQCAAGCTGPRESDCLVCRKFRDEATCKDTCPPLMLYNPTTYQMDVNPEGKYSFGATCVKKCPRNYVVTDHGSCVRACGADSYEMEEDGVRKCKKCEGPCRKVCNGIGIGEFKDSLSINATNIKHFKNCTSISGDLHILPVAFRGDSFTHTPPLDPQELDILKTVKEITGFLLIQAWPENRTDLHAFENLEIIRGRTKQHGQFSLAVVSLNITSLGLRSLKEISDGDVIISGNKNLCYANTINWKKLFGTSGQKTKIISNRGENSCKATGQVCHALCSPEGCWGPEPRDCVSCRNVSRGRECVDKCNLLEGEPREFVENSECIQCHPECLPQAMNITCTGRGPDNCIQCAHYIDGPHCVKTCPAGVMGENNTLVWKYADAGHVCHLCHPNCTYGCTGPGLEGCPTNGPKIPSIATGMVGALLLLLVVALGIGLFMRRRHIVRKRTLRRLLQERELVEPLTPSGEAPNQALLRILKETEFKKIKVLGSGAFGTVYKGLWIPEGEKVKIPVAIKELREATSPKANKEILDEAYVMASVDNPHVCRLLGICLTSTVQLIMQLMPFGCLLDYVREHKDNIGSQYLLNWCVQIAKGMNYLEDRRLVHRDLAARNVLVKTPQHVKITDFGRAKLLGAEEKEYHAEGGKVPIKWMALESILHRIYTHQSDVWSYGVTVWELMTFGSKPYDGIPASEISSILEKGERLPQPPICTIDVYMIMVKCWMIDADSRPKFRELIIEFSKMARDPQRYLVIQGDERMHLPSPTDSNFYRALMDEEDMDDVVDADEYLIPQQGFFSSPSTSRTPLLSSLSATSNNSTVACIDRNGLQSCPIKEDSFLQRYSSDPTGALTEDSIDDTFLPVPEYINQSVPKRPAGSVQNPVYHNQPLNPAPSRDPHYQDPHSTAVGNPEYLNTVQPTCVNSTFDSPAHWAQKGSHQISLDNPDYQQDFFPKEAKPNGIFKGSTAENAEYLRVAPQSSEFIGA
Kind of test: EGFR (L858R & T790M) inhibition assay, HTRF method. Particulars: biochemical HTRF; EGFR (T790M/L858R) 2.5 nM, ATP 5 μM, 60 min room temperature. How it is done:
Example 25: Biological Activity: EGFR T790M Assay Protocol
The objective of the experiment is to find the IC50 for the compounds using HTRF method.
Reagents for Enzyme Assay:
1. Enzyme Assay Buffer: 60 mM HEPES (pH 7.4), 50 mM NaCl, 20 mM MgCl2, 5 mM MnCl2, filter using 0.2 µm pore size, store at 4° C.
Supplements (add fresh to the enzyme buffer): Make 1M DTT stock, 5% BSA stock and 0.1M Na3OV4 stored at 4° C. Enzyme assay buffer 50 ml, 1 M DTT 100 μl, 5% BSA 500 μl, 0.1M Na3OV4 50 μl.
2. GST-hEGFR (L858R), active: EGFR (T790M/L858R), active (Proqinase), 3.6 μM stock; 2.5 nM in final assay.
3. Gastrin Precusor-Biotinylated: Gastrin precursor (Tyr87) biotinylated peptide (EEAY*GWM), Cell Signaling Tech 1310, Lot-7, Want final 0.5 μM in assay
4. ATP: 10 mM stock in 100 μl Enzyme assay buffer pH 7.4 prepared freshly, want 5 μM in final assay.
5. Test compounds: Dissolve powders in 100% DMSO to a final stock concentration of 10 mM (volume in μL to add for 10 mM=mg powder×10^5/MW). Final comp concentration in the assay plate is starting at 10 μM.
1. HTRF buffer: 50 mM Tris-HCl, pH-7.5, 100 mM NaCl, 0.1% BSA, 0.05% Tween20, 0.5 mM EDTA, filter using 0.2 µm pore size, store at 4° C.
Phycolink® Streptavidin-Allophycocyanin (SA-APC) Prozyme, Cat. #PJ25S, Lot #896 085, 2.06 mg/mL, APC concentration is 11.6 μM, streptavidin concentration is 15.5 μM. Want 12 nM final in assay (based on streptavidin concentration).
2. Europium-W1024-PT-66 Anti Phospho Tyrosine Antibody: Perkin Elmer (AD0068), monoclonal IgG1 that recognizes phospho tyrosine peptide 100 μg/ml stock. Want 0.1 nM final in assay.
• 1. Make the compound dilution by TECAN as per the above scheme. • 2. Add 16 μl of diluted compound to the assay plate by using TECAN • 3. Add 10 μl of enzyme mix to each well except mins. • 4. Add 20 μl of substrate and ATP mix into each well of the assay plate manually. • 5. Incubate the plate at room temperature for 60 min with shaking. • 6. Meanwhile prepare the HTRF mix and add 75 μl to the HTRF plate. • 7. When the incubation is over, transfer 10 μl of the reaction mixture to the HTRF assay plate and incubate for 30 min at room temperature with shaking. • 8. Take the reading in Pherastar (ext 337 nm, em 665 & 620 nm). • 9. Analyze the results using Graphpad prism after calculation the z factor, signal window and % inhibition to get the IC50.
Compounds having IC50<10 nM are designated as “A”; 10-100 nM are designated as “B”; and >100 nM as “C”.
For the compound `C=CC(=O)Nc1cccc(Oc2nc(Nc3cc4n(n3)CCN(C)C4)ncc2Cl)c1` [Compound I-78, N-(3-((5-chloro-2-((5-methyl-4,5,6,7-tetrahydropyrazolo[1,5-a]pyrazin-2-yl)amino)pyrimidin-4-yl)oxy)phenyl)acrylamide], the IC50 lay within 10 to 100 nM.
To `C=CC(=O)N1CCC(Oc2nc(Nc3cnn(C)c3)ncc2Cl)C1` (single isomer, unassigned) [II-10 (Enantiomer 1), 1-(3-((5-chloro-2-((1-methyl-1H-pyrazol-4-yl)amino)pyrimidin-4-yl)oxy)pyrrolidin-1-yl)prop-2-en-1-one] belongs greater than 100 nM; to `C=CC(=O)Nc1ccc(F)c(Nc2nc(Nc3cc(C)no3)ncc2Cl)c1` [Compound I-118, N-(3-((5-chloro-2-((3-methylisoxazol-5-yl)amino)pyrimidin-4-yl)amino)-4-fluorophenyl)acrylamide], 10 to 100 nM.
As to `C=CC(=O)Nc1cc(Nc2nc(Nc3cnn(C)c3)ncc2Cl)ccc1F` [Compound I-66, N-(5-((5-chloro-2-((1-methyl-1H-pyrazol-4-yl)amino)pyrimidin-4-yl)amino)-2-fluorophenyl)acrylamide], the IC50 lay in the range of 10 to 100 nM.
`C=CC(=O)Nc1cccc(Nc2nc(Nc3cn(C)nc3C)ncc2Cl)c1` [Compound I-34, N-(3-((5-chloro-2-((1,3-dimethyl-1H-pyrazol-4-yl)amino)pyrimidin-4-yl)amino)phenyl)acrylamide]: the IC50 was less than 10 nM.
To `C=CC(=O)Nc1cccc(Nc2nc(Nc3cnn(C4CCN(C)CC4)c3)ncc2OC)c1` [Compound I-12, N-(3-((5-methoxy-2-((1-(1-methylpiperidin-4-yl)-1H-pyrazol-4-yl)amino)pyrimidin-4-yl)amino)phenyl)acrylamide] belongs 10 to 100 nM; to `C=CC(=O)Nc1ccc(OC2CCOC2)c(Nc2nc(Nc3cnn(C)c3)ncc2Cl)c1` (centres unmarked) [Compound I-54, N-(3-((5-chloro-2-((1-methyl-1H-pyrazol-4-yl)amino)pyrimidin-4-yl)amino)-4-((tetrahydrofuran-3-yl)oxy)phenyl)acrylamide], greater than 100 nM.
In the case of `C=CC(=O)Nc1ccc(F)c(Nc2nc(Nc3cnn(C)c3)ncc2Cl)c1` [Compound I-39, N-(3-((5-chloro-2-((1-methyl-1H-pyrazol-4-yl)amino)pyrimidin-4-yl)amino)-4-fluorophenyl)acrylamide] it was less than 10 nM; in that of `C=CC(=O)Nc1cccc(Oc2nc(Nc3cnn(CC(C)(C)O)c3)ncc2Cl)c1` [Compound I-81, N-(3-((5-chloro-2-((1-(2-hydroxy-2-methylpropyl)-1H-pyrazol-4-yl)amino)pyrimidin-4-yl)oxy)phenyl)acrylamide], greater than 100 nM; in that of `C=CC(=O)NC1CCCC(Nc2nc(Nc3cc(C)ns3)ncc2Cl)C1` (centres unmarked) [Compound I-114, N-(3-((5-chloro-2-((3-methylisothiazol-5-yl)amino)pyrimidin-4-yl)amino)cyclohexyl)acrylamide], 10 to 100 nM.
Consider `CC(Nc1nc(Nc2cnn(C)c2)ncc1Cl)c1cccc(NC(=O)/C=C/CN(C)C)c1` (centres unmarked) [Compound I-57, (E)-N-(3-(1-((5-chloro-2-((1-methyl-1H-pyrazol-4-yl)amino)pyrimidin-4-yl)amino)ethyl)phenyl)-4-(dimethylamino)but-2-enamide], for which the IC50 is greater than 100 nM.
To `C=CC(=O)Nc1cccc(Nc2nc(Nc3cn(C)nc3C)ncc2Cl)n1` (single isomer, unassigned) [Compound I-73, N-(6-((5-chloro-2-((1,3-dimethyl-1H-pyrazol-4-yl)amino)pyrimidin-4-yl)amino)pyridin-2-yl)acrylamide] belongs 10 to 100 nM; to `C=CC(=O)N1CCCC(Nc2nc(Nc3cnn(C4CCC4)c3)ncc2Cl)C1` (single isomer, unassigned) [II-6 (Enantiomer 2), 1-(3-((5-chloro-2-((1-cyclobutyl-1H-pyrazol-4-yl)amino)pyrimidin-4-yl)amino)piperidin-1-yl)prop-2-en-1-one], greater than 100 nM.
In the case of `C=CC(=O)Nc1cccc(Nc2nc(Nc3cnn(C4CCC(O)C4)c3)ncc2Cl)c1` (centres unmarked) [Compound I-36, N-(3-((5-chloro-2-((1-(3-hydroxycyclopentyl)-1H-pyrazol-4-yl)amino)pyrimidin-4-yl)amino)phenyl)acrylamide] it was 10 to 100 nM.
As for `C=CC(=O)Nc1ccc(F)c(Nc2nc(Nc3ncc(Cl)s3)ncc2Cl)c1` [Compound I-120, N-(3-((5-chloro-2-((5-chlorothiazol-2-yl)amino)pyrimidin-4-yl)amino)-4-fluorophenyl)acrylamide], the IC50 is greater than 100 nM.
In the case of `C=CC(=O)N1CCCC(Oc2nc(Nc3cnn(C)c3)ncc2Cl)C1` (single isomer, unassigned) [II-13 (Enantiomer 2), 1-(3-((5-chloro-2-((1-methyl-1H-pyrazol-4-yl)amino)pyrimidin-4-yl)oxy)piperidin-1-yl)prop-2-en-1-one], the IC50 was greater than 100 nM.
To `C=CC(=O)Nc1cccc(Nc2nc(Nc3cnn(C)c3C)ncc2Cl)c1` [Compound I-23, N-(3-((5-chloro-2-((1,5-dimethyl-1H-pyrazol-4-yl)amino)pyrimidin-4-yl)amino)phenyl)acrylamide] belongs greater than 100 nM.
To `C=CC(=O)Nc1cccc(Nc2nc(Nc3cnn(C4CCN(C)CC4)c3)ncc2C)c1` [Compound I-13, N-(3-((5-methyl-2-((1-(1-methylpiperidin-4-yl)-1H-pyrazol-4-yl)amino)pyrimidin-4-yl)amino)phenyl)acrylamide] belongs 10 to 100 nM; to `C=CC(=O)Nc1cccc(Nc2nc(Nc3nnc(C(F)(F)F)s3)ncc2Cl)c1` [Compound I-44, N-(3-((5-chloro-2-((5-(trifluoromethyl)-1,3,4-thiadiazol-2-yl)amino)pyrimidin-4-yl)amino)phenyl)acrylamide], greater than 100 nM; to `C=CC(=O)Nc1cc(Nc2nc(Nc3cnn(C4CCN(C)CC4)c3)ncc2Cl)ccc1F` [Compound I-67, N-(5-((5-chloro-2-((1-(1-methylpiperidin-4-yl)-1H-pyrazol-4-yl)amino)pyrimidin-4-yl)amino)-2-fluorophenyl)acrylamide], 10 to 100 nM.
On to `C=CC(=O)Nc1ccc(F)c(Nc2nc(Nc3cc(C)ns3)ncc2Cl)c1` [Compound I-117, N-(3-((5-chloro-2-((3-methylisothiazol-5-yl)amino)pyrimidin-4-yl)amino)-4-fluorophenyl)acrylamide], for which the IC50 is less than 10 nM.
Take `C=CC(=O)Nc1cccc(Nc2nc(Nc3cc(C)no3)ncc2Cl)c1` [Compound I-125, N-(3-((5-chloro-2-((3-methylisoxazol-5-yl)amino)pyrimidin-4-yl)amino)phenyl)acrylamide]: the half-inhibitory concentration (IC50) is 10 to 100 nM.
`CN1CCC(n2cc(Nc3ncc(Cl)c(Nc4cccc(NC(=O)C=C5CCCCC5)c4)n3)cn2)CC1` [Compound I-28, N-(3-((5-chloro-2-((1-(1-methylpiperidin-4-yl)-1H-pyrazol-4-yl)amino)pyrimidin-4-yl)amino)phenyl)-2-cyclohexylideneacetamide]: the IC50 is greater than 100 nM.
In the case of `C=CC(=O)N1CCCC(Nc2nc(Nc3cnn(C)c3)ncc2Cl)C1` (single isomer, unassigned) [II-2 (Enantiomer 2), 1-(3-((5-chloro-2-((1-methyl-1H-pyrazol-4-yl)amino)pyrimidin-4-yl)amino)piperidin-1-yl)prop-2-en-1-one] it was greater than 100 nM.
In the case of `C=CC(=O)Nc1ccc(F)c(Nc2nc(Nc3onc(C)c3C)ncc2Cl)c1` [Compound I-119, N-(3-((5-chloro-2-((3,4-dimethylisoxazol-5-yl)amino)pyrimidin-4-yl)amino)-4-fluorophenyl)acrylamide] it was greater than 100 nM.
As for `C=CS(=O)(=O)Nc1cccc(Nc2nc(Nc3cnn(C)c3)ncc2Cl)c1` [Compound I-65, N-(3-((5-chloro-2-((1-methyl-1H-pyrazol-4-yl)amino)pyrimidin-4-yl)amino)phenyl)ethenesulfonamide], the IC50 lay in the range of 10 to 100 nM.
